Results on 24 compounds are retold here after patent US20260158009A1 (GENZYME CORPORATION, priority 2023, published 2026).

For experiment [1], the target named is T1, hRIPK1 (aa 1-375) fusion protein (Homo sapiens, UniProt Q13546).
T1 construct: hRIPK1 (aa 1-375) fusion protein
T1 sequence (Q13546 1-375): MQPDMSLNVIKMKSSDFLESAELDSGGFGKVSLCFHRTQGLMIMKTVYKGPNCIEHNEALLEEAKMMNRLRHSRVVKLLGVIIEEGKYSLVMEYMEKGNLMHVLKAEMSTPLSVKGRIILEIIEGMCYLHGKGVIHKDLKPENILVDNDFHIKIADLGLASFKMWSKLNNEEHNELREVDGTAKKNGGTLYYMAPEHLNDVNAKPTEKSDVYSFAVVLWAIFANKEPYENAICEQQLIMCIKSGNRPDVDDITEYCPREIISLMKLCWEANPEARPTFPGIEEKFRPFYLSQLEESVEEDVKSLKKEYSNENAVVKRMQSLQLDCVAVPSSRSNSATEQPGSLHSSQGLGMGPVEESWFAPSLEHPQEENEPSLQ
The experiment is described as follows: ADP-Glo kinase assay: catalytic activity of RIPK1 (autophosphorylation, conversion of ATP to ADP). It is filed as biochemical. Summed up: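 The readout was ADP-Glo luminescence after a 240 min rt autophosphorylation reaction with 50 μM ATP, following 30 min preincubation of 3.6 μg/ml hRIPK1 (aa 1-375) fusion with compound at 33300-1.69 nM final in 1% DMSO. Values came from Levenberg-Marquardt nonlinear fits.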

For a further experiment, the system named is U937 cells. The experiment in a line: Cellular assay in U937 cells: activity of RIPK1 inhibitors on TNFα/zVAD.fmk-induced cell death (necroptosis), CellTiter 96 AQueous (MTS) readout. It is filed as cell-based. As to conditions: Homo sapiens, U-937. The method, boiled down: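 Necroptosis was measured by viable-cell MTS reduction (4 h, absorbance 490 nm) after overnight (18–24 h) 37° C culture. Cell suspensions of U937 cells carried TNFα (100 ng/ml) plus zVAD.fmk (50 μM) before compound was added. A 10-point curve (10 μM–0.26 nM or 1 μM–0.07 nM) was run in duplicate, normalised to the control lacking TNFα/zVAD.fmk.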

As for `Cc1ncc([C@@H]2CCON2C(=O)[C@H]2CC[C@H](Cc3cc(C)c4ncnn4c3)CC2)cc1F` [compound 335, trans-[(3S)-3-(5-fluoro-6-methylpyridin-3-yl)-1,2-oxazolidin-2-yl]-[4-[(8-methyl-[1,2,4]triazolo[1,5-a]pyridin-6-yl)methyl]cyclohexyl]methanone], the IC50 stood at 27 nM in experiment [1] and 11 nM with U937 cells.

`Cc1ccc([C@@H]2CCON2C(=O)[C@]2(C)CC[C@@H](Cc3cc(C)c4nc(C)nn4c3)CC2)cn1` [compound 400, trans-[4-[(2,8-dimethyl-[1,2,4]triazolo[1,5-a]pyridin-6-yl)methyl]-1-methylcyclohexyl]-[(3S)-(6-methylpyridin-3-yl)-1,2-oxazolidin-2-yl]methanone]: the IC50 in experiment [1] is 19 nM; in the experiment with U937 cells, 9 nM.

Regarding `Cc1ncc([C@@H]2CCON2C(=O)[C@H]2CC[C@H](Cc3ccc4ncnn4c3)CC2)cc1F` [compound 337, trans-[(3S)-3-(5-fluoro-6-methylpyridin-3-yl)-1,2-oxazolidin-2-yl]-[4-([1,2,4]triazolo[1,5-a]pyridin-6-ylmethyl)cyclohexyl]methanone], the IC50 in experiment [1] was determined as 26 nM; in the experiment on U937 cells, 31 nM.

`Cc1cncc([C@@H]2CCON2C(=O)[C@H]2CC[C@H](Cc3cc(F)c4nc(C)nn4c3)CC2)c1` [compound 333, trans-[4-[(8-fluoro-2-methyl-[1,2,4]triazolo[1,5-a]333yrdine-6-yl)methyl]cyclohexyl]-[(3S)-3-(5-methylpyridin-3-yl)-1,2-oxazolidin-2-yl]methanone]: the IC50 in experiment [1] came out at 30 nM; in the experiment with U937 cells it was 55 nM.

`N#Cc1ccc2cnn(C[C@H]3CC[C@H](C(=O)N4OCC[C@H]4c4ccccn4)CC3)c2c1` [compound 215, trans-1-[[4-[(3S)-3-(2-pyridyl)isoxazolidine-2-carbonyl]cyclohexyl]methyl]indazole-6-carbonitrile]: the IC50 in experiment [1] was 20 nM; in the experiment on U937 cells it was 7 nM.

For the compound `Cc1ccc(C[C@H]2CC[C@H](C(=O)N3OCC[C@H]3c3cnccn3)CC2)cc1C#N` [compound 139, trans-2-methyl-5-[[4-[(3S)-3-pyrazin-2-ylisoxazolidine-2-carbonyl]cyclohexyl]methyl]benzonitrile], the results for the IC50 (in experiment [1]; with U937 cells) were 10 nM and 2 nM, respectively.

`N#Cc1cc(F)cc([C@@H]2CCON2C(=O)[C@H]2CC[C@H](Cc3cnccn3)CC2)c1` [compound 245, trans-3-fluoro-5-[(3S)-2-[4-(pyrazin-2-ylmethyl)cyclohexanecarbonyl]isoxazolidin-3-yl]benzonitrile]: the IC50 in experiment [1] is 17 nM; in the experiment on U937 cells, 16 nM.

Consider `Cc1ccc([C@@H]2CCON2C(=O)[C@H]2C[C@H](Cn3cnc4cc(F)ccc43)C2)cc1` [compound 114, trans-(3-((5-fluoro-1H-benzo[d]imidazol-1-yl)methyl)cyclobutyl)((S)-3-(p-tolyl)isoxazolidin-2-yl)methanone], for which the IC50 amounted to 34 nM in experiment [1] and 174 nM in the experiment with U937 cells.

In the case of `N#Cc1cc(F)cc([C@@H]2CCON2C(=O)[C@H]2CC[C@H](Cn3cc4cc(F)ccc4n3)CC2)c1` [compound 56, trans-3-fluoro-5-((S)-2-(4-((5-fluoro-2H-indazol-2-yl)methyl)cyclohexane-1-carbonyl)isoxazolidin-3-yl)benzonitrile], the IC50 in experiment [1] was 42 nM; with U937 cells, 109 nM.

Regarding `Cc1cc(C[C@H]2CC[C@H](C(=O)N3OCC[C@H]3c3cc(F)cc(F)c3)CC2)ncn1` [compound 313, trans-[(3S)-3-(3,5-difluorophenyl)isoxazolidin-2-yl]-[4-[(6-methylpyrimidin-4-yl)methyl]cyclohexyl]methanone], the IC50 in experiment [1] was 42 nM; with U937 cells, 40 nM.

As for `Cn1nccc1C[C@H]1CC[C@H](C(=O)N2OCC[C@H]2c2ccc(F)c(F)c2)CC1` [compound 311, trans-[(3S)-3-(3,4-difluorophenyl)isoxazolidin-2-yl]-[4-[(2-methylpyrazol-3-yl)methyl]cyclohexyl]methanone], the figures for the IC50 (in experiment [1]; with U937 cells) were 11 nM and 16 nM, respectively.

As to `Cc1cn(C[C@H]2CC[C@H](C(=O)N3OCC[C@H]3c3cc(F)cc(F)c3)CC2)c2cc(C(N)=O)ccc12` [compound 111, trans-1-((4-((S)-3-(3,5-difluorophenyl)isoxazolidine-2-carbonyl)cyclohexyl)methyl)-3-methyl-1H-indole-6-carboxamide], the IC50 in experiment [1] is 27 nM; with U937 cells, 10 nM.

In the case of `COCCOc1cnc2ccn(C[C@H]3CC[C@H](C(=O)N4OCC[C@H]4c4cc(F)cc(C#N)c4)CC3)c2c1` [compound 149, trans-3-fluoro-5-[(3S)-2-[4-[[6-(2-methoxyethoxy)pyrrolo[3,2-b]pyridin-1-yl]methyl]cyclohexanecarbonyl]isoxazolidin-3-yl]benzonitrile], the values for the IC50 (in experiment [1]; in the experiment with U937 cells) were 9 nM and 8 nM, respectively.

`Cc1c2ccccc2nn1C[C@H]1CC[C@H](C(=O)N2OCC[C@H]2c2cc(F)cc(C#N)c2)CC1` [compound 63, trans-3-fluoro-5-((S)-2-(4-((3-methyl-2H-indazol-2-yl)methyl)cyclohexane-1-carbonyl)isoxazolidin-3-yl)benzonitrile]: the IC50 was found to be 27 nM in experiment [1] and 55 nM with U937 cells.

On to `Cc1ncc(C[C@H]2CC[C@H](C(=O)N3OCC[C@H]3c3cc(F)c(C)c(C#N)c3)CC2)cc1C#N` [compound 286, trans-5-[[4-[(3S)-3-(3-cyano-5-fluoro-4-methyl-phenyl)isoxazolidine-2-carbonyl]cyclohexyl]methyl]-2-methyl-pyridine-3-carbonitrile], for which the IC50 (in experiment [1]; with U937 cells) was 1 nM throughout.

Regarding `Cc1nc2ccc(C[C@H]3CC[C@H](C(=O)N4OCC[C@H]4c4ccc(F)c(F)c4)CC3)nn2n1` [compound 310, trans-[(3S)-3-(3,4-difluorophenyl)isoxazolidin-2-yl]-[4-[(2-methyl-[1,2,4]triazolo[1,5-b]pyridazin-6-yl)methyl]cyclohexyl]methanone], the IC50 in experiment [1] was 12 nM; with U937 cells, 22 nM.

`Cc1cn2ncc(C[C@H]3CC[C@H](C(=O)N4OCC[C@H]4c4cnccn4)CC3)cc2n1` [compound 349, trams-[4-[(2-methylimidazo[1,2-b]pyridazin-7-yl)methyl]cyclohexyl]-[(3S)-3-pyrazin-2-yl-1,2-oxazolidin-2-yl]methanone]: the IC50 was determined as 42 nM in experiment [1] and 108 nM with U937 cells.

Turning to `O=C([C@H]1CC[C@H](Cc2cc(F)c3ncnn3c2)CC1)N1OCC[C@H]1c1cnccn1` [compound 205, trans-[4-[(8-fluoro-[1,2,4]triazolo[1,5-a]pyridin-6-yl)methyl]cyclohexyl]-[(3S)-3-pyrazin-2-ylisoxazolidin-2-yl]methanone], the values for the IC50 (in experiment [1]; with U937 cells) were 31 nM and 112 nM, respectively.

For `Cc1cn2ncc(C[C@H]3CC[C@H](C(=O)N4OCC[C@H]4c4cccc(C#N)c4)CC3)cc2n1` [compound 322, [2-cyano-4-[(3S)-2-[4-[(2-methylimidazo[1,2-b]pyridazin-7-yl)methyl]cyclohexanecarbonyl]isoxazolidin-3-yl]phenyl]], the IC50 in experiment [1] is 37 nM; with U937 cells, 27 nM.

For the compound `Cc1ncc(F)cc1C[C@H]1CC[C@H](C(=O)N2OCC[C@H]2c2cc(F)cc(F)c2)CC1` [compound 182, trans-[(3S)-3-(3,5-difluorophenyl)isoxazolidin-2-yl]-[4-[(5-fluoro-2-methyl-3-pyridyl)methyl]cyclohexyl]methanone], the IC50 in experiment [1] was found to be 22 nM; with U937 cells, 1 nM.

For `N#Cc1cc(F)cc([C@@H]2CCON2C(=O)[C@H]2CC[C@H](Cn3cnc4ccc(F)cc43)CC2)c1` [compound 112, trans-3-fluoro-5-((S)-2-(4-((6-fluoro-1H-benzo[d]imidazol-1-yl)methyl)cyclohexane-1-carbonyl)isoxazolidin-3-yl)benzonitrile], the IC50 in experiment [1] was 23 nM; in the experiment on U937 cells it was 7 nM.

`N#Cc1cc(F)cc([C@@H]2CCON2C(=O)[C@H]2CC[C@H](Cn3cnc4cc(F)ccc43)CC2)c1` [compound 48, trans-3-fluoro-5-((S)-2-(4-((5-fluoro-1H-benzo[d]imidazol-1-yl)methyl)cyclohexane-1-carbonyl)isoxazolidin-3-yl)benzonitrile]: the IC50 in experiment [1] was determined as 25 nM; in the experiment on U937 cells it was 15 nM.

Turning to `Cc1nc2ccc(C[C@H]3CC[C@H](C(=O)N4OCC[C@H]4c4cc(F)cc(F)c4)CC3)nn2n1` [compound 315, [(3S)-3-(3,5-difluorophenyl)-1,2-oxazolidin-2-yl]-[4-[(2-methyl-[1,2,4]triazolo[1,5-b]pyridazin-6-yl)methyl]cyclohexyl]methanone], the IC50 worked out at 10 nM in experiment [1] and 20 nM in the experiment with U937 cells.

In the case of `N#Cc1cncc([C@@H]2CCON2C(=O)[C@H]2CC[C@H](Cn3cnc4cc(F)ccc43)CC2)c1` [compound 107, trans-5-((S)-2-(4-((5-fluoro-1H-benzo[d]imidazol-1-yl)methyl)cyclohexane-1-carbonyl)isoxazolidin-3-yl)nicotinonitrile], the IC50 turned out to be 39 nM in experiment [1] and 108 nM in the experiment with U937 cells.
